Measured values taken from ChEMBL document CHEMBL1201862, “PubChem BioAssay data set” (2004).
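Cultured in 96-well plates, cells were exposed to test compound for 48 hours across five concentrations. At the GI50, growth is halved.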 Active and inactive are the calls of the source. Cut-off read from the data, not from the text of the source: active = GI50 up to about 1.1 µM and inactive = higher.

Tests used:
Experiment in all cases: NCI-60 cell line screen, 48 h
[1] = tested on: KM12
[2] = tested on: MDA-N
[3] = tested on: NCI-H23
[4] = tested on: A549
[5] = tested on: BT-549
[6] = tested on: T47D
[7] = tested on: PC-3
[8] = tested on: NCI-H226
[9] = tested on: DU-145
[10] = tested on: Hs-578T
[11] = tested on: OVCAR-3
[12] = tested on: HT-29
[13] = tested on: 786-0
[14] = tested on: M14
[15] = tested on: SW-620
[16] = tested on: COLO 205
[17] = tested on: Malme-3M
[18] = tested on: NCI/ADR-RES
[19] = tested on: U-251
[20] = tested on: HOP-62

Measured: GI50

COc1cc2ccccc2oc1=O
inactive: [1] > 100 µM | [2] > 100 µM | [3] 94.2 µM | [4] > 100 µM | [5] 19.8 µM | [6] 1.85 µM | [7] > 100 µM | [8] > 100 µM | [9] > 100 µM | [10] 45.9 µM | [11] 74.5 µM | [12] > 100 µM | [13] > 100 µM | [14] 81.7 µM | [15] > 100 µM | [16] > 100 µM | [17] 99.1 µM | [18] 97.5 µM | [19] > 100 µM | [20] 59.8 µM
